Experimental data published in patent publication EP4603105A1, “PHARMACEUTICAL COMPOSITION CONTAINING CYCLIC COMPOUND HAVING SELECTIVE KRAS INHIBITORY EFFECT AGAINST HRAS AND NRAS” (CHUGAI SEIYAKU KABUSHIKI KAISHA, priority 2022, dated 2024).

Columns and labels:
[1] = test system: human ovarian cancer strain OV7; assay type: cell-based
Procedure, shortened: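 OV7 cells, 250 per well, in DMEM/Ham's F-12 with 5% FBS, 0.5 µg/mL hydrocortisone and 10 µg/mL insulin, grown 7 days at 37°C with serially diluted compound. Viability by CellTiter-Glo luminescence.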

[2] = test system: human pancreatic cancer strain KP4; assay type: cell-based
Procedure, shortened: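 KP4 pancreatic cancer cells seeded at 500 cells/well in DMEM/Ham's F-12 with 10% FBS onto serially diluted compound. Viability read by CellTiter-Glo luminescence.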

[3] = target: GDP-bound KRAS wild-type protein (Homo sapiens, UniProt P01116); test: Binding to KRAS by surface plasmon resonance (SPR), dissociation constant KD
Procedure, shortened: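 Captured GDP-RAS (~100–300 RU) was exposed to increasing compound concentrations, 75 s per step, in running buffer with 10 µM GDP, 10 mM MgCl2 and 4% DMSO at pH 7.4.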

[4] = target: GDP-bound NRAS wild-type protein (Homo sapiens, UniProt P01111); test: Binding to NRAS by surface plasmon resonance (SPR), KD and KD ratio to KRAS
Procedure, shortened: (§1)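 Single-cycle kinetics on GDP-loaded biotin-Avi RAS captured to ~100–300 RU; 75 s ascending injections, 100 µL/min, 30°C. HBS pH 7.4 + 10 mM MgCl2/10 µM GDP/4% DMSO. 1:1 fit, KD.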

[5] = test system: human lung cancer strain NCI-H441; assay type: cell-based
Procedure, shortened: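 Proliferation was scored by […] measured after the reagent was added to cultures kept at 37°C in 5% carbon dioxide.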

[6] = test system: human bladder cancer strain UM-UC-3; assay type: cell-based
Procedure, shortened: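 UM-UC-3 human bladder cancer cells were seeded at 250 cells/well onto serially diluted compound in MEM with 10% FBS. Viability was read as CellTiter-Glo luminescence.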

HRAS wild-type protein = HRAS wild-type protein (Homo sapiens, UniProt P01112); test: Binding to HRAS by surface plasmon resonance (SPR), KD and KD ratio to KRAS
Procedure, shortened: as §1

[7] = test system: human gastric cancer strain SNU-1; assay type: cell-based
Procedure, shortened: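 SNU-1 gastric cancer cells, 250 cells/well in RPMI-1640 with 10% FBS, glucose, HEPES and sodium pyruvate, plated onto serially diluted compound in DMSO.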

[8] = test system: human colorectal cancer strain GP2d; assay type: cell-based
Procedure, shortened: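 Cells seeded at 500 cells/well in DMEM with 10% FBS onto serially diluted compound in DMSO, then cultured 7 days at 37°C, 5% CO2. Viability read by CellTiter-Glo luminescence.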

[9] = test system: human gastric cancer strain GSU; assay type: cell-based
Procedure, shortened: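 Cells seeded at 200 per well in RPMI-1640 with 10% FBS onto serially diluted compound (DMSO) in U-bottom plates. Viability read by CellTiter-Glo luminescence.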

[10] = ratio of KD for GDP-bound NRAS wild-type protein to KD for KRAS
[11] = ratio of KD for HRAS wild-type protein to KD for KRAS

Chain of HRAS wild-type protein (P01112 whole entry): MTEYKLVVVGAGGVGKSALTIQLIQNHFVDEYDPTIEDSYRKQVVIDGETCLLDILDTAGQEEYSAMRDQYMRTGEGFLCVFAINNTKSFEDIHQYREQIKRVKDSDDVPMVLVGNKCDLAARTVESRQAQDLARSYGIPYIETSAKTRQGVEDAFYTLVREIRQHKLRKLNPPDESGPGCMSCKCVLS
Chain of GDP-bound NRAS wild-type protein (P01111 whole entry): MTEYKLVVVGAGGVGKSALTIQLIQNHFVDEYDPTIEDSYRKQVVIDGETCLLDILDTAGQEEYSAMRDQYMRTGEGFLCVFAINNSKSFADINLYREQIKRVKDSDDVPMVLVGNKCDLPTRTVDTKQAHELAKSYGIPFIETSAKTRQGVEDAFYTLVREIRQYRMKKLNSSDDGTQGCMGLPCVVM
Chain of GDP-bound KRAS wild-type protein (P01116 1-188 isoform P01116-2): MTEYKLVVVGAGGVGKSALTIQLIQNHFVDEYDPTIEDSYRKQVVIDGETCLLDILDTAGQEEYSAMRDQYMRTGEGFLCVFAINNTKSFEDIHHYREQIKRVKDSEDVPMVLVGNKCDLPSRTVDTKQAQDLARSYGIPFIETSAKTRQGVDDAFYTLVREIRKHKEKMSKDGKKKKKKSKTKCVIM

SMILES	IC50 [1] [nM]	IC50 [2] [nM]	Kd ([3]; Single Cycle Kinetics) [nM]	IC50 [5] [nM]	IC50 [6] [nM]	IC50 [7] [nM]	IC50 [8] [nM]	IC50 [9] [nM]	Kd ([3]; Single Cycle Kinetics, 1:1 binding model) [nM]	Kd ([3]; 1:1 binding model) [nM]	NRAS /KRAS [4, 10]	HRAS /KRAS (HRAS wild-type protein; [11])	NRAS /KRAS ([4]; ratio of the KD value with respect to GDP-bound NRAS wild-type protein to the KD value with respect to KRAS)	HRAS /KRAS (HRAS wild-type protein; ratio of the KD value with respect to HRAS wild-type protein to the KD value with respect to KRAS)
CCC[C@H]1C(=O)N[C@@H]([C@@H](C)CC)C(=O)N2CCC[C@H]2C(=O)N(C)[C@H]2C/C=C\CCN(C2=O)[C@@H](Cc2ccc(C(F)(F)F)cc2)C(=O)N(C)CC(=O)N[C@@H](CCc2ccc(C(F)(F)F)c(OC)c2)C(=O)N2C[C@H](OCC)C[C@H]2C(=O)OC2(CCC2)C(=O)N(C)[C@@H](C2CCCC2)C(=O)N(C)[C@H](C(=O)N(C)C)CC(=O)N1C [PP3368, (1S,4S,10S,13S,17S,20S,26S,28R,32S,38S,42Z)-20-cyclopentyl-28-ethoxy-32-[2-[3-methoxy-4-(trifluoromethyl)phenyl]ethyl]-N,N,2,14,18,21,36-heptamethyl-10-[(1S)-1-methylpropyl]-3,9,12,15,19,22,25,31,34,37,45-undecaoxo-13-propyl-38-[[4-(trifluoromethyl)phenyl]methyl]spiro[24-oxa-2,8,11,14,18,21,30,33,36,39-decazatetracyclo[37.5.1.0^4,8.0^26,30]pentatetracont-42-ene-23,1'-cyclobutane]-17-carboxamide]	42.5	18.6	0.57	11.9	13.9	20.4	22.6	2.8	–	–	A (a compound having 10 or more and less than 20 is denoted as A)	A (a compound having 10 or more and less than 20 is denoted as A)	–	–
CCO[C@@H]1C[C@H]2C(=O)OC3(CCC3)C(=O)N(C)[C@@H](C3CCCC3)C(=O)N(C)[C@H](C(=O)N(C)C)CC(=O)N(C)[C@@H]([C@@H](C)OC)C(=O)N[C@@H]([C@@H](C)CC)C(=O)N3CCC[C@H]3C(=O)N(C)[C@H]3C/C=C\CCN(C3=O)[C@@H](Cc3ccc(C(F)(F)F)cc3)C(=O)N(C)CC(=O)N[C@@H](CCc3ccc(C(F)(F)F)c(OC)c3)C(=O)N2C1 [PP3374]	15.9	8.2	0.41	5.9	6.3	7.4	6.9	1.9	–	–	A (a compound having 10 or more and less than 20 is denoted as A)	A (a compound having 10 or more and less than 20 is denoted as A)	–	–
CCO[C@@H]1C[C@H]2C(=O)NC3(CCCC3)C(=O)N(C)[C@@H](C3CCCC3)C(=O)N(C)[C@H](C(=O)N(C)C)CC(=O)N(C)[C@@H](CC(C)C)C(=O)N[C@@H]([C@@H](C)CC)C(=O)N(C)CC(=O)N(C)[C@H]3C/C=C\CCN(C3=O)[C@@H](Cc3ccc(C(F)(F)F)cc3)C(=O)N(C)CC(=O)N[C@@H](CCc3cc(F)c(C(F)(F)F)c(F)c3)C(=O)N2C1 [PP1105, (2S,8S,12R,14S,20S,23S,27S,30S,36S,38Z)-20-cyclopentyl-8-[2-[3,5-difluoro-4-(trifluoromethyl)phenyl]ethyl]-12-ethoxy-27-isobutyl-N,N,4,19,22,26,32,35-octamethyl-30-[(1S)-1-methylpropyl]-3,6,9,15,18,21,25,28,31,34,42-undecaoxo-2-[[4-(trifluoromethyl)phenyl]methyl]spiro[1,4,7,10,16,19,22,26,29,32,35-undecazatricyclo[34.5.1.0^10,14]dotetracont-38-ene-17,1'-cyclopentane]-23-carboxamide]	8.1	3.1	0.07	12	2.1	2.7	2.9	0.3	–	–	A (a compound having 10 or more and less than 20 is denoted as A)	A (a compound having 10 or more and less than 20 is denoted as A)	–	–
CCO[C@@H]1C[C@H]2C(=O)NC3(CC(C)(C)C3)C(=O)N(C)[C@@H](C3CCCC3)C(=O)N(C)[C@H](C(=O)N(C)C)CC(=O)N(C)[C@@H]([C@@H](C)OC)C(=O)N[C@@H]([C@@H](C)CC)C(=O)N(C)CC(=O)N(C)[C@H]3C/C=C\CCN(C3=O)[C@@H](Cc3ccc(C(F)(F)F)cc3)C(=O)N(C)CC(=O)N[C@@H](CCc3ccc(C(F)(F)F)c(Cl)c3)C(=O)N2C1 [PP3198, (2S,8S,12R,14S,20S,23S,27S,30S,36S,38Z)-8-[2-[3-chloro-4-(trifluoromethyl)phenyl]ethyl]-20-cyclopentyl-12-ethoxy-27-[(1R)-1-methoxyethyl]-N,N,3',3',4,19,22,26,32,35-decamethyl-30-[(1S)-1-methylpropyl]-3,6,9,15,18,21,25,28,31,34,42-undecaoxo-2-[[4-(trifluoromethyl)phenyl]methyl]spiro[1,4,7,10,16,19,22,26,29,32,35-undecazatricyclo[34.5.1.0^10,14]dotetracont-38-ene-17,1'-cyclobutane]-23-carboxamide]	7.2	4.7	–	4.4	2.5	3.2	2.4	0.4	–	0.04	A (a compound having 10 or more and less than 20 is denoted as A)	A (a compound having 10 or more and less than 20 is denoted as A)	–	–

Second part, led by results:

IC50 [1] [nM]	IC50 [2] [nM]	Kd ([3]; Single Cycle Kinetics) [nM]	IC50 [5] [nM]	IC50 [6] [nM]	IC50 [7] [nM]	IC50 [8] [nM]	IC50 [9] [nM]	Kd ([3]; Single Cycle Kinetics, 1:1 binding model) [nM]	Kd ([3]; 1:1 binding model) [nM]	SMILES	NRAS /KRAS [4, 10]	HRAS /KRAS (HRAS wild-type protein; [11])	NRAS /KRAS ([4]; ratio of the KD value with respect to GDP-bound NRAS wild-type protein to the KD value with respect to KRAS)	HRAS /KRAS (HRAS wild-type protein; ratio of the KD value with respect to HRAS wild-type protein to the KD value with respect to KRAS)
80.2	102	–	25.7	19.7	20	24.8	0.5	0.45	–	CCC[C@H]1C(=O)N[C@@H]([C@@H](C)CC)C(=O)N(C)CC(=O)N(C)[C@H]2C/C=C\CCN(C2=O)[C@@H](Cc2ccc(C(F)(F)F)cc2)C(=O)N(C)CC(=O)N[C@@H](CCc2ccc(Cl)c(Cl)c2)C(=O)N2C[C@H](OCC)C[C@H]2C(=O)NC2(CC(C)(C)C2)C(=O)N(C)[C@@H](C(CC)CC)C(=O)N(C)[C@H](C(=O)N(C)C)CC(=O)N1C [PP2175, (2S,8S,12R,14S,20S,23S,27S,30S,36S,38Z)-8-[2-(3,4-dichlorophenyl)ethyl]-12-ethoxy-20-(1-ethylpropyl)-N,N,3',3',4,19,22,26,32,35-decamethyl-30-[(1S)-1-methylpropyl]-3,6,9,15,18,21,25,28,31,34,42-undecaoxo-27-propyl-2-[[4-(trifluoromethyl)phenyl]methyl]spiro[1,4,7,10,16,19,22,26,29,32,35-undecazatricyclo[34.5.1.0^10,14]dotetracont-38-ene-17,1'-cyclobutane]-23-carboxamide]	–	–	AA (a compound having 20 or more is denoted as AA)	A (a compound having 10 or more and less than 20 is denoted as A)
31.8	56	–	19	20.6	24.2	23.6	1.9	–	0.54	CCO[C@@H]1C[C@H]2C(=O)NC3(CC(C)(C)C3)C(=O)N(C)[C@@H](CC(C)(C)C)C(=O)N(C)[C@H](C(=O)N(C)C)CC(=O)N(C)[C@@H](COC)C(=O)N[C@@H]([C@@H](C)CC)C(=O)N(C3CC3)CC(=O)N(C)[C@H]3C/C=C\CCN(C3=O)[C@@H](Cc3ccc(C(F)(F)F)cc3)C(=O)N(C)CC(=O)N[C@@H](CCc3ccc(Cl)c(Cl)c3)C(=O)N2C1 [PP2750, (2S,8S,12R,14S,20S,23S,27S,30S,36S,38Z)-32-cyclopropyl-8-[2-(3,4-dichlorophenyl)ethyl]-20-(2,2-dimethylpropyl)-12-ethoxy-27-(methoxymethyl)-N,N,3',3',4,19,22,26,35-nonamethyl-30-[(1S)-1-methylpropyl]-3,6,9,15,18,21,25,28,31,34,42-undecaoxo-2-[[4-(trifluoromethyl)phenyl]methyl]spiro[1,4,7,10,16,19,22,26,29,32,35-undecazatricyclo[34.5.1.0^10,14]dotetracont-38-ene-17,1'-cyclobutane]-23-carboxamide]	AA (a compound having 20 or more is denoted as AA)	A (a compound having 10 or more and less than 20 is denoted as A)	–	–
